# Measured values from patent publication US11505548B2, “Heterocyclic compounds and their use for treatment of helminthic infections and diseases” (Celgene Corporation, priority 2019, dated 2022).
# Test system: microfilariae of Dirofilaria immitis
# Assay: Dirofilaria immitis, Microfilaria (DiMF) Assay
# Type: cell-based
# Conditions: read-out: D. immitis activity level (IC50 or MED)
# Method: Heartworm Screen Dirofilaria immitis (D. immitis)
# Dirofilaria immitis, Microfilaria (DiMF) Assay.
# Compounds were dissolved and serially diluted in DMSO. Aliquots were spotted to the empty wells of assay plates. Media and microfilariae of Dirofilaria immitis were added to each well to dilute the test compounds to the desired concentrations. Assay plates were incubated for approximately 72 hours, and the larvae in each well were observed microscopically for drug effect. Microfilariae in each well were assessed subjectively for survival or paralysis, and results were reported as Minimum Effective Dose (MED).
# Active and selective (DiL4 vs. DiMF potency) example compounds were subsequently evaluated in heartworm positive dog studies to correlate the in vitro selectivity profile with in vivo effects on circulating microfilariae.
row,Structure (SMILES),IC50 [nM]
1,"CC(C)c1cccnc1Nc1nc(-c2ccc(OC3CC3)cn2)ns1 [Compound 74, 3-(5-cyclopropoxy-pyridin-2-yl)-N-(3-isopropylpyridin-2-yl)-1,2,4-thiadiazol-5-amine]",< 200
2,"Cc1cccnc1Nc1nc(-c2ccc(OC3CCN(C(=O)C(C)C)CC3)cn2)ns1 [Compound 265, 2-methyl-1-(4-(6-(5-(3-methylpyridin-2-ylamino)-1,2,4-thiadiazol-3-yl)pyridin-3-yloxy)piperidin-1-yl)propan-1-one]",500 to 5000
3,"CC(C)c1cccnc1Nc1nc(-c2ccc(OC(F)F)cn2)ns1 [Compound 127, 3-(5-(difluoro-methoxy)pyridin-2-yl)-N-(3-isopropyl-pyridin-2-yl)-1,2,4-thiadiazol-5-amine]",500 to 5000
4,"Cc1cccnc1Nc1nc(-c2ccc(OC3CCOCC3)cn2)no1 [Compound 16, N-(3-methyl-pyridin-2-yl)-3-(5-(tetrahydro-2H-pyran-4-yloxy)pyridin-2-yl)-1,2,4-oxadiazol-5-amine]",500 to 5000
5,"CC(=O)N(C)c1cccnc1Nc1nc(-c2cc(C(C)C)c(C)cn2)ns1 [Compound 223, N-(2-(3-(4-isopropyl-5-methylpyridin-2-yl)-1,2,4-thiadiazol-5-ylamino)pyridin-3-yl)-N-methyl-acetamide]",200 to 500
6,"Cc1cccnc1Nc1nc(-c2cc(C(F)(F)F)c(OCC3CC3)cn2)ns1 [Compound 110, 3-(5-(cyclo-propylmethoxy)-4-(trifluoromethyl)pyridin-2-yl)-N-(3-methyl-pyridin-2-yl)-1,2,4-thiadiazol-5-amine]",200 to 500
7,"CC(C)Oc1cnc(-c2nsc(Nc3ncccc3N(C)C)n2)cc1C(F)(F)F [Compound 156, N2-(3-(5-isopropoxy-4-(trifluoromethyl)pyridin-2-yl)-1,2,4-thiadiazol-5-yl)-N3,N3-dimethyl-pyridine-2,3-diamine]",200 to 500
8,"CC(C)c1ccnc(-c2nsc(Nc3ncccc3N(C)C(=O)C3CC3)n2)c1 [Compound 217, N-(2-(3-(4-isopropylpyridin-2-yl)-1,2,4-thiadiazol-5-ylamino)pyridin-3-yl)-N-methylcyclo-propanecarbox-amide]",500 to 5000
9,FC(F)(F)c1ccc(Nc2nc(-c3ccccn3)ns2)nc1 [Cmpd 1],< 200
10,"CC(C)Oc1cnc(-c2nsc(Nc3ncccc3N3CCCC3=O)n2)cc1C(F)(F)F [Compound 179, 1-(2-(3-(5-isopropoxy-4-(trifluoromethyl)pyridin-2-yl)-1,2,4-thiadiazol-5-ylamino)pyridin-3-yl)pyrrolidin-2-one]",500 to 5000
11,"CC(C)Oc1ccc(-c2nsc(Nc3ncccc3C(=O)N(C)C3CC3)n2)nc1 [Compound 262, N-cyclo-propyl-2-(3-(5-isopropoxy-pyridin-2-yl)-1,2,4-thiadiazol-5-ylamino)-N-methyl-nicotinamide]",200 to 500
12,"Cc1cccnc1Nc1nc(-c2ccc(OC3CCN(C4CC4)CC3)cn2)ns1 [Compound 45, 3-(5-(1-cyclo-propylpiperidin-4-yloxy)pyridin-2-yl)-N-(3-methylpyridin-2-yl)-1,2,4-thiadiazol-5-amine]",500 to 5000
13,"Cc1cccnc1Nc1nc(-c2ccc(OC(F)(F)F)cn2)ns1 [Compound 52, N-(3-methyl-pyridin-2-yl)-3-(5-(trifluoro-methoxy)pyridin-2-yl)-1,2,4-thiadiazol-5-amine]",500 to 5000
14,"CC(=O)N(c1cccnc1Nc1nc(-c2ccc(OC(C)C)cn2)ns1)C(C)C [Compound 205, N-(2-(3-(5-isopropoxy-pyridin-2-yl)-1,2,4-thiadiazol-5-ylamino)pyridin-3-yl)-N-isopropy-lacetamide]",500 to 5000
15,"CC(C)Oc1ccc(-c2nsc(Nc3ncccc3N(C)C(=O)C3CCC3)n2)nc1 [Compound 171, N-(2-(3-(5-isopropoxy-pyridin-2-yl)-1,2,4-thiadiazol-5-ylamino)pyridin-3-yl)-N-methylcyclo-butane-carboxamide]",500 to 5000
16,"Cc1cnc(Nc2nc(-c3cc(OC4COC4)ccn3)ns2)c(C(F)(F)F)c1 [Compound 275, N-(5-methyl-3-(trifluoromethyl)pyridin-2-yl)-3-(4-(oxetan-3-yloxy)pyridin-2-yl)-1,2,4-thiadiazol-5-amine]",< 200
17,"Cc1cccnc1-c1noc(Nc2ccc(N3CCCC3)cn2)n1 [Compound 42, 3-(3-methyl-pyridin-2-yl)-N-(5-(pyrrolidin-1-yl)pyridin-2-yl)-1,2,4-oxadiazol-5-amine]",500 to 5000
18,"CC(C)c1cnc(Nc2nc(-c3cc(OC4CC4)ccn3)ns2)cc1C(F)(F)F [Compound 96, 3-(4-cycloprop-oxypyridin-2-yl)-N-(5-isopropyl-4-(trifluoromethyl)pyridin-2-yl)-1,2,4-thiadiazol-5-amine]",< 200
19,"CC(C)Oc1cnc(-c2nsc(Nc3ncccc3C(C)C)n2)cc1C(N)=O [Compound 198, 5-isopropoxy-2-(5-(3-isopropylpyridin-2-ylamino)-1,2,4-thiadiazol-3-yl)isonicotin-amide]",500 to 5000

row,Structure (SMILES),IC50 [nM]
1,"CC(=O)N(C)c1cccnc1Nc1nc(-c2ccc(OC(C)C)cn2)ns1 [Compound 157, N-(2-(3-(5-isopropoxy-pyridin-2-yl)-1,2,4-thiadiazol-5-ylamino)pyridin-3-yl)-N-methyl-acetamide]",500 to 5000
2,"CC(C)Oc1ccc(-c2nsc(Nc3ncc(C(F)(F)F)cc3N(C)C(=O)C3CC3)n2)nc1 [Compound 248, N-(2-(3-(5-isopropoxy-pyridin-2-yl)-1,2,4-thiadiazol-5-ylamino)-5-(trifluoro-methyl)pyridin-3-yl)-N-methylcyclo-propanecarbox-amide]",< 200
3,"CC(C)Oc1cnc(-c2nsc(Nc3ncc(C(C)C)cc3C(F)(F)F)n2)cc1C(=O)N(C)C [Compound 219, 5-isopropoxy-2-(5-(5-isopropyl-3-(trifluoromethyl)pyridin-2-ylamino)-1,2,4-thiadiazol-3-yl)-N,N-dimethyliso-nicotinamide]",200 to 500
4,"FC(F)(F)c1cccnc1Nc1nc(-c2cc(C3CC3)ccn2)ns1 [Compound 84, 3-(4-cyclopropyl-pyridin-2-yl)-N-(3-(trifluoromethyl)pyridin-2-yl)-1,2,4-thiadiazol-5-amine]",< 200
5,"CC(=O)Nc1cccnc1Nc1nc(-c2ccc(OC(C)C)cn2)ns1 [Compound 161, N-(2-(3-(5-isopropoxy-pyridin-2-yl)-1,2,4-thiadiazol-5-ylamino)pyridin-3-yl)acetamide]",500 to 5000
6,"CC(C)Oc1ccc(-c2nsc(Nc3ncccc3C(=O)N(C)C3CC(F)(F)C3)n2)nc1 [Compound 191, N-(3,3-difluoro-cyclobutyl)-2-(3-(5-isoprop-oxypyridin-2-yl)-1,2,4-thiadiazol-5-ylamino)-N-methyl-nicotinamide]",500 to 5000
7,"CN1CCC(Oc2ccnc(-c3nsc(Nc4ncccc4C(F)(F)F)n3)c2)CC1 [Compound 62, 3-(4-(1-methyl-piperidin-4-yloxy)pyridin-2-yl)-N-(3-(trifluoromethyl)pyridin-2-yl)-1,2,4-thiadiazol-5-amine]",500 to 5000
8,"CC(C)Oc1ccc(-c2nsc(Nc3ncccc3N(C)C(=O)C3CC3)n2)nc1 [Compound 170, N-(2-(3-(5-isopropoxy-pyridin-2-yl)-1,2,4-thiadiazol-5-ylamino)pyridin-3-yl)-N-methylcyclo-propanecarbox-amide]",500 to 5000
9,"CC(C)c1ccnc(-c2nsc(Nc3cc(C(F)(F)F)ccn3)n2)c1 [Compound 86, 3-(4-isopropyl-pyridin-2-yl)-N-(4-(trifluoromethyl)pyridin-2-yl)-1,2,4-thiadiazol-5-amine]",< 200
10,"COc1ccc(-c2nsc(Nc3ccc(OC(C)C)cn3)n2)nc1 [Compound 215, N-(5-isoprop-oxypyridin-2-yl)-3-(5-methoxy-pyridin-2-yl)-1,2,4-thiadiazol-5-amine]",500 to 5000
11,"Cc1cccnc1Nc1nc(-c2ccc(OC3CCOCC3)cn2)ns1 [Compound 15, N-(3-methyl-pyridin-2-yl)-3-(5-(tetrahydro-2H-pyran-4-yloxy)pyridin-2-yl)-1,2,4-thiadiazol-5-amine]",500 to 5000
12,"Cc1cccnc1Nc1nc(-c2ccc(OC(C)C)cn2)ns1 [Compound 19, 3-(5-isopropoxy-pyridin-2-yl)-N-(3-methyl-pyridin-2-yl)-1,2,4-thiadiazol-5-amine]",< 200
13,"CC(=O)N(C)c1cccnc1Nc1nc(-c2ccc(OC3CCN(C(C)C)CC3(F)F)cn2)ns1 (stereo not shown) [Compound 203, N-(2-(3-(5-(3,3-difluoro-1-isopropyl-piperidin-4-yloxy)pyridin-2-yl)-1,2,4-thiadiazol-5-ylamino)pyridin-3-yl)-N-methylacetamide]",500 to 5000
14,"COc1ccc(Nc2nc(-c3ccccn3)ns2)nc1 [Cmpd 2, N-(5-methoxy-pyridin-2-yl)-3-(pyridin-2-yl)-1,2,4-thiadiazol-5-amine]",500 to 5000
15,"COC(=O)c1cc(-c2nsc(Nc3ncccc3C)n2)ncc1OC(C)C [Compound 196, methyl 5-isopropoxy-2-(5-(3-methylpyridin-2-ylamino)-1,2,4-thiadiazol-3-yl)isonicotinate]",200 to 500
16,"COc1ccc(-c2nsc(Nc3ccc(C4CCCC4)cn3)n2)nc1 [Compound 68, N-(5-cyclopentyl-pyridin-2-yl)-3-(5-methoxypyridin-2-yl)-1,2,4-thiadiazol-5-amine]",500 to 5000
17,"Cc1cnc(Nc2nc(-c3cc(C(=O)N(C)C)c(OC(C)C)cn3)ns2)c(C(F)(F)F)c1 [Compound 254, 5-isopropoxy-N,N-dimethyl-2-(5-(5-methyl-3-(trifluoromethyl)pyridin-2-ylamino)-1,2,4-thiadiazol-3-yl)isonico-tinamide]",500 to 5000
18,"CC(C)Oc1ccc(-c2n[nH]c(Nc3ncccc3C(F)(F)F)n2)nc1 [Compound 70, N-(3-(5-isopropoxy-pyridin-2-yl)-1H-1,2,4-triazol-5-yl)-3-(trifluoromethyl) pyridin-2-amine]",500 to 5000
